Test results published in patent US20220175688A1, “POLYMERIC NANOPARTICLES” (Hillstream BioPharma, Inc., priority 2015, published 2022).

What was measured:
[1] = Size, zeta potential, % EE of singly or dually loaded PLA72K-PEG-PPG-PEG12.5K NPs; format: physicochemical
Procedure: PTX loaded nanoparticles were produced using an emulsion-solvent evaporation method. Briefly, 50 mg of copolymer in 5 ml acetonitrile (ACN) and 5 mg of PTX (LC Laboratories, Boston, Mass., US) were dissolved in 100 ul ACN and added to 50 mg of PLA-PEG-PPG-PEG solution in 5 ml ACN. The resulting mixture was then added into a 20 ml aqueous phase composed of F127 in distilled water and stirred at room temperature for 6 to 8 hours to facilitate solvent evaporation and nanoparticle stabilization. PTX and NuBCP-9 peptide loaded PLA-PEG-PPG-PEG (50 mg) nanoparticles were prepared by double emulsion process. Paclitaxel was added into the dissolved PLA-PEG-PPG-PEG copolymer followed by immediate addition of peptide with a slight sonication. […]
Nanoparticles were filtered through an Amikon 30-kDa ultrafilter (Millipore, USA) and washed twice with MQ water to remove free drug/dye. […] The filtrate was collected and analyzed for free NuBCP-9 peptide by a Micro-BCA Kit (Pierce Chemicals, USA) and measured on EPOCH microplate reader (BioTek, US) at 590 nm. Similarly, free paclitaxel was measured through high performance liquid chromatography HPLC (Perkin Elmer, US) assay method, using C18 column with acetonitrile, Water, Methanol (60:35:5 volume ratio) as mobile phase. Encapsulation efficiency (EE %) of NuBCP-9 peptide/PTX was determined using the following formula:

[2] = Isoelectric point of peptide; format: physicochemical
[3] = test system: MCF-7 breast cancer cells; experiment: In vitro cytotoxicity, XTT cell proliferation assay; format: cell-based; conditions: Homo sapiens, MCF7, 72 hrs
Procedure: (§1) D. In vitro cytotoxicity analysis: […] The cells were maintained at 37° C. and 5% CO2 atmosphere for the duration of experiments. Exponentially growing cancer cells were plated into a 96-well plate at a seeding density of 3000 cells per well and incubated for 24 hrs.

[4] = test system: MDA-MB231 breast cancer cells; experiment: as above; format: cell-based; conditions: Homo sapiens, MDA-MB-231, 72 hrs
Procedure: as §1

Ehrlich tumor = experiment: Antitumor activity in syngeneic Ehrlich tumor model (Example 8); format: in vivo, Balb/c mice; conditions: 21 days treatment
Procedure: H. Analysis of antitumor activity: Mice Ehrlich tumor cells were injected subcutaneously in the hind limb of syngeneic Balb/c mice (17-22 g). Tumor bearing mice (˜150 mm^3) were divided into 9 groups (6 mice/group) and treated weekly or biweekly intraperitoneally (i.p.) with different formulations for 21 days. Tumor volume was determined by vernier caliper and calculated using the formula (A×B^2)×0.5, where A and B are the longest and shortest tumor diameters, respectively. From each group, 1 mouse was sacrificed on day 7, 14, and 21 for harvesting of tumor for histopathologal examination. The tumors were fixed in 10% formalin/saline and embedded in paraffin. Five-micrometer sections were stained with hematoxylin and eosin for further immunohistochemistry, TUNNEL and Ki67 assay. Statistical analysis of tumor volumes was performed by one-way ANOVA using Graph pad prism. Survival of the mice was determined by the Kaplan-Meier method using Prism 4.0 software (Graph Pad Software).
The in vivo antitumor efficacy and systemic toxicity of the dual-drug and single drug loaded nanoparticles were evaluated on EAT tumor model Balb/c mice. […]

MCF-7/PTX-R = experiment: IC50 in PTX-resistant MCF-7 cells (Example 9); format: cell-based; conditions: Homo sapiens, MCF7
Description: (§2) Accordingly, MCF-7 cells resistant to PTX were generated by exposure to increasing PTX concentrations (Table 9).

MCF-7/PTX-R cells = experiment: Apoptosis in PTX-resistant cells (Annexin V/PI, FLOW, caspase-3 and PARP cleavage); format: cell-based, Human; conditions: 100 nM, 48 h
Procedure: Cells were then stained with Annexin V/PI and analyzed by FACS. […] (see Example 9).
Analysis was performed by immunoblotting with anti-caspase-3 CF, anti-PARP CF and anti-β-Actin antibodies (see Example 9).
as §2

breast cancer = conditions: first-line treatment of locally recurrent or metastatic breast cancer; cited from earlier work

EE % of PTX ([1]; encapsulation efficiency) | IC50 (MCF-7/PTX-R) | Molecule | EE % of Peptide ([1]; encapsulation efficiency of NuBCP-9) | isoelectric point [2] | IC50 [3] | IC50 [4] | Ki67 expression in tumor tissues (Ehrlich tumor) | induction of apoptosis (MCF-7/PTX-R cells) | progression-free survival (breast cancer)
– | – | FSRSLHSLL (listed as Homo sapiens) [NuBCP-9] | 64.5% | ~7.2 pH | – | – | – | – | –
87% | 1.75 µM | CC(=O)O[C@H]1C(=O)[C@@]2(C)[C@H]([C@H](OC(=O)c3ccccc3)[C@]3(O)C[C@H](OC(=O)[C@H](O)[C@@H](NC(=O)c4ccccc4)c4ccccc4)C(C)=C1C3(C)C)[C@]1(OC(C)=O)CO[C@@H]1C[C@@H]2O [PTX, Paclitaxel] | – | – | 38 nM | 46 nM | high | not | 11 months
